Data: patent publication US20230031406A1, “COMPOUNDS AND COMPOSITIONS FOR TREATING CONDITIONS ASSOCIATED WITH NLRP ACTIVITY” (Novartis AG, priority 2018, published 2023)
Read-outs that look alike come from different tables or passages of the source. One block for each compound: values may come before it.

Test system: PMA-differentiated THP-1 cells
Experiment: IL-1β production in PMA-differentiated THP-1 cells stimulated with gramicidin (hTHP-1 assay containing 2% fetal bovine serum; Procedures 1 and 2)
Assay type: cell-based, human
Conditions: 2% fetal bovine serum
Method in brief: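 PMA-primed (20 ng/ml, 16-18 h) THP-1 cells in RPMI with 2% FBS, 50,000 cells/well, were preincubated 1 h with compound (0.0017-100 μM final, 0.37% DMSO), then stimulated 2 h with 5 μM gramicidin. Supernatant IL-1β measured by HTRF.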

[1] = Homo sapiens, THP-1, Table B2, numeric bounds, read-out: hTHP-1 IC50
[2] = Homo sapiens, THP-1, Table B1, numeric bounds, read-out: Average IC50 of compounds in hTHP-1 assay: hTHP-1 IC50
[3] = Homo sapiens, THP-1, Table B3, hTHP-1 assay, class symbols, read-out: IC50
[4] = Table B1, class symbols, read-out: Average IC50 of compounds in hTHP-1 assay: hTHP-1 IC50
[5] = Table B2, class symbols, read-out: hTHP-1 IC50
[6] = Homo sapiens, THP-1, Table B2, class symbols, read-out: hTHP-1 IC50
[7] = Table B3, hTHP-1 assay, class symbols, read-out: IC50

SMILES: CC(C)(O)c1nc(S(N)(=O)=NC(=O)Nc2c3c(nc4c2CCC4)CCC3)cs1 (single isomer, unassigned) [Compound 154b, (S) or (R)-N′-((1,2,3,5,6,7-hexahydrodicyclo-penta[b,e]pyridin-8-yl)carbamoyl)-2-(2-hydroxypropan-2-yl)thiazole-4-sulfonimidamide]
- IC50 [2]: > 28000 nM

SMILES: CC(C)(O)c1ncc(S(N)(=O)=NC(=O)Nc2c3c(nc4c2CCC4(C)C)CCC3)s1 (single isomer, unassigned) [Compound 153b, (R) or (S)-N′-((3,3-dimethyl-1,2,3,5,6,7-hexahydro-dicyclopenta[b,e]pyridin-8-yl)carbamoyl)-2-(2-hydroxypropan-2-yl)thiazole-5-sulfonimidamide]
- IC50 [4]: 40 to 200 nM

SMILES: CCn1ccc(S(N)(=O)=NC(=O)Nc2c3c(nc4c2CC[C@H]4C)CCC3)n1 (single isomer, unassigned) [Compound 634b, (R) or (S)-1-Ethyl-N′-(((R)-3-methyl-1,2,3,5,6,7-hexahydrodicyclopenta [b,e]pyridin-8-yl)carbamoyl)-1H-pyrazole-3-sulfonimidamide]
- IC50 [5]: 40 to 200 nM

SMILES: CCC1CCc2c1nc1c(c2NC(=O)N=S(N)(=O)c2sc(C(C)(C)O)cc2F)CCC1 (single isomer, unassigned) [Compound 671a, (S, S) or (S, R) or (R, S) or (R, R)-N′-((3-ethyl-1,2,3,5,6,7-hexahydrodicyclopenta [b,e]pyridin-8-yl)carbamoyl)-3-fluoro-5-(2-hydroxypropan-2-yl) thiophene-2-sulfonimidamide]
- IC50 [1]: > 30000 nM

SMILES: CC1(C)CCc2c1nc1c(c2NC(=O)N=S(N)(=O)c2sc(C(C)(O)CO)cc2F)CCC1 (single isomer, unassigned) [Compound 640c, (R, S) and (S, S) or (S, R) and (R, R)-5-(1,2-Dihydroxypropan-2-yl)-N′-((3,3-dimethyl-1,2,3,5,6,7-hexahydrodicyclopenta [b,e]pyridin-8-yl)carbamoyl)-3-fluorotliophene-2-sulfonimidamide]
- IC50 [5]: 1000 to 5000 nM

SMILES: CC(C)(O)c1csc(S(N)(=O)=NC(=O)Nc2c3c(nc(C4CC4)c2C2CC2)CCC3)c1 (single isomer, unassigned) [Compound 670b, (R) or (S)-N′-((2,3-dicyclopropyl-6,7-dihydro-5H-cyclopenta[b]pyridin-4-yl)carbamoyl)-4-(2-hydroxypropan-2-yl)thiophene-2-sulfonimidamide]
- IC50 [5]: 40 to 200 nM

SMILES: Cc1c(C(F)(F)F)nc2c(c1NC(=O)N=S(N)(=O)c1cc(C(C)(C)O)cs1)CCC2 (single isomer, unassigned) [Compound 624a, (S) or (R)-4-(2-Hydroxypropan-2-yl)-N′-((3-methyl-2-(trifluoromethyl)-6,7-dihydro-5H-cyclopenta[b]pyridin-4-yl)carbamoyl) thiophene-2-sulfonimidamide]
- IC50 [5]: 1000 to 5000 nM

SMILES: CCC1CCc2c1nc1c(c2NC(=O)N=S(N)(=O)c2cnc(C(C)(C)O)s2)CCC1 (single isomer, unassigned) [Compound 662b, (S, R) or (S, S) or (R, S) or (R, R)-N′-((3-Ethyl-1,2,3,5,6,7-hexaliydrodicyclopenta [b,e]pyridin-8-yl)caibamoyl)-2-(2-hydroxypropan-2-yl)thiazole-5-sulfonimidamide]
- IC50 [1]: > 30000 nM

SMILES: CCc1c(-c2ccccc2)nc2c(c1NC(=O)N=S(N)(=O)c1cnc(C(C)(C)O)s1)CCC2 (stereo not drawn) [Compound 144, N′-((3-ethyl-2-phenyl-6,7-dihydro-5H-cyclopenta[b]pyridin-4-yl)carbamoyl)-2-(2-hydroxypropan-2-yl)thiazole-5-sulfonimidamide]
- IC50 [2]: > 30000 nM

SMILES: CC1CCc2c1nc1c(c2NC(=O)N=S(N)(=O)c2ncc(C(C)(C)O)s2)CCC1 (single isomer, unassigned) [Compound 140ba, (S,S) or (S,R)-5-(2-hydroxypropan-2-yl)-N′-((3-methyl-1,2,3,5,6,7-hexa-hydrodicyclo-penta[b,e]pyridin-8-yl)carbamoyl)thiazole-2-sulfonimidamide]
- IC50 [4]: 5000 to 30000 nM

SMILES: CC(C)(O)c1ncc(S(N)(=O)=NC(=O)Nc2cc(-c3ccccc3)nc3c2CCC3)s1 (stereo not drawn) [Compound 142, 2-(2-hydroxypropan-2-yl)-N′-((2-phenyl-6,7-dihydro-5H-cyclopenta[b]pyridin-4-yl)carbamoyl)thiazole-5-sulfonimidamide]
- IC50 [2]: > 30000 nM

SMILES: Cc1c(C(C)C)nc2c(c1NC(=O)N=S(N)(=O)c1cnc(C(C)(C)O)s1)CCC2 (single isomer, unassigned) [Compound 650b, (S) or (R)-2-(2-Hydroxypropan-2-yl)-N′-((2-isopropyl-3-methyl-6,7-dihydro-5H-cyclopenta[b]pyridin-4-yl)carbamoyl)thiazole-5-sulfonimidamide]
- IC50 [5]: 5000 to 30000 nM

SMILES: CC(C)n1nc(S(N)(=O)=NC(=O)Nc2c3c(nc4c2CCC4(C)C)CCC3)cc1C(C)(C)O (single isomer, unassigned) [Compound 615a, (S) or (R)-N′-((3,3-dimethyl-1,2,3,5,6,7-hexahydrodicyclopenta [b,e]pyridin-8-yl)carbamoyl)-5-(2-hydroxypropan-2-yl)-1-isopropyl-1H-pyrazole-3-sulfonimidamide]
- IC50 [1]: > 30000 nM

SMILES: CCC1CCc2c1nc1c(c2NC(=O)N=S(N)(=O)c2ccn(C(F)F)n2)CCC1 (single isomer, unassigned) [Compound 668c, (R, R) or (R, S) or (S, R) or (S, S)-1-(Difluoromethyl)-N′-((3-ethyl-1,2,3,5,6,7-hexahydrodicyclopenta [b,e]pyridin-8-yl)carbamoyl)-1H-pyrazole-3-sulfonimidamide]
- IC50 [6]: 5000 to 30000 nM

Other lines, results leading:

- IC50 [1]: > 30000 nM
SMILES: NS(=O)(=NC(=O)Nc1c2c(nc3c1CCC3)CCC2)c1ccn(CC(F)(F)F)n1 (single isomer, unassigned) [Compound 685a, (S) or (R)-N′-((1,2,3,5,6,7-hexahydrodicyclopenta [b,e]pyridin-8-yl)carbamoyl)-1-(2,2,2-trifluoroethyl)-1H-pyrazole-3-sulfonimidamide]

- IC50 [3]: 1000 to 5000 nM
SMILES: C[C@@H]1CCc2c1nc1c(c2NC(=O)N=[S@](N)(=O)c2cc([C@@H](C)O)cs2)CCC1 (single isomer, unassigned) [Example 661, (S)-4-((R) or (S)-1-hydroxyethyl)-N′-(((R)-3-methyl-1,2,3,5,6,7-hexahydrodicyclopenta[b,e]pyridin-8-yl)carbamoyl) thiophene-2-sulfonimidamide]

- IC50 (Table B4, class symbols, read-out: hTHP-1 IC50): 200 to 1000 nM
SMILES: NS(=O)(=NC(=O)Nc1c2c(nc(C3CC3)c1C1CC1)CCC2)c1nn(C(F)F)cc1F (single isomer, unassigned) [Example 763, (R) or (S)-N′-((2,3-dicyclopropyl-6,7-dihydro-5H-cyclopenta[b]pyridin-4-yl)carbamoyl)-1-(difluoromethyl)-4-fluoro-1H-pyrazole-3-sulfonimidamide]

- IC50 [3]: 5000 to 30000 nM
SMILES: C[C@H](O)c1csc([S@@](N)(=O)=NC(=O)Nc2c3c(nc4c2CC[C@H]4C)CCC3)c1 (single isomer, unassigned) [Example 662, (S)-4-((S) or (R)-1-hydroxyethyl)-N′-(((R)-3-methyl-1,2,3,5,6,7-hexahydrodicyclopenta[b,e]pyridin-8-yl)carbamoyl)thiophene-2-sulfonimidamide]

- IC50 [5]: 200 to 1000 nM
SMILES: CC(C)(O)c1cnc(S(N)(=O)=NC(=O)Nc2c3c(nc4c2CCC42CC2)CCC3)s1 (single isomer, unassigned) [Compound 683a, (R) or (S)-5-(2-Hydroxypropan-2-yl)-N′-((1′,5′,6′,7′-tetrahydro-2′H-spiro[cyclopropane-1,3′-dicyclopenta[b,e]pyridin]-8′-yl)carbamoyl) thiazole-2-sulfonimidamide]

- IC50 [6]: 1000 to 5000 nM
SMILES: CC(C)n1cc(Cl)c(S(N)(=O)=NC(=O)Nc2c3c(nc4c2CCC4)CCC3)n1 (single isomer, unassigned) [Compound 694b, (R) or (S)-4-Chloro-N′-((1,2,3,5,6,7-hexahydrodicyclopenta [b,e]pyridin-8-yl)carbamoyl)-1-isopropyl-1H-pyrazole-3-sulfonimidamide]

- IC50 [7]: 200 to 1000 nM
SMILES: CCn1ccc(S(N)(=O)=NC(=O)Nc2c3c(nc(C4CC4)c2C2CC2)CCC3)n1 (single isomer, unassigned) [Example 699, (R) or (S)-N′-((2,3-dicyclopropyl-6,7-dihydro-5H-cyclopenta[b]pyridin-4-yl)carbamoyl)-1-ethyl-1H-pyrazole-3-sulfonimidamide]

- IC50 [5]: 200 to 1000 nM
SMILES: Cc1c(C(C)C)nc2c(c1NC(=O)N=S(N)(=O)c1cc(C(C)(C)O)cs1)CCC2 (single isomer, unassigned) [Compound 681b, (R) or (S)-4-(2-Hydroxypropan-2-yl)-N′-((2-isopropyl-3-methyl-6,7-dihydro-5H-cyclopenta[b]pyridin-4-yl)carbamoyl) thiophene-2-sulfonimidamide]

- IC50 [6]: 1000 to 5000 nM
SMILES: COCc1nc(C(C)(C)O)sc1S(N)(=O)=NC(=O)Nc1c2c(nc3c1CCC3)CCC2 (stereo not drawn) [Compound 689, N′-((1,2,3,5,6,7-hexahydrodicyclopenta[b,e]pyridin-8-yl)carbamoyl)-2-(2-hydroxypropan-2-yl)-4-(methoxymethyl)thiazole-5-sulfonimidamide]

- IC50 [7]: 200 to 1000 nM
SMILES: NS(=O)(=NC(=O)Nc1c2c(nc(C(F)(F)F)c1C1CC1)CCC2)c1nn(C(F)F)cc1F (stereo not drawn) [Example 615, N′-((3-cyclopropyl-2-(trifluoromethyl)-6,7-dihydro-5H-cyclopenta[b]pyridin-4-yl)carbamoyl)-1-(difluoromethyl)-4-fluoro-1H-pyrazole-3-sulfonimidamide]
